This is an account of results in patent publication US5985837A, “Dolastatin 15 derivatives” (BASF Aktiengesellschaft, priority 1998, dated 1999).

One series relates to tumor cells such as the HT-29 colon carcinoma or LX-1 lung tumor. The experiment in a line: Cytotoxicity, microculture tetrazolium assay (MTT). To be noted: 48 hours incubation, concentration giving T/C of 50% growth inhibition, cell line not given. It is filed as cell-based. Here is the method: Cytotoxicity was measured using a standard methodology for adherent cell lines, such as the microculture tetrazolium assay (MTT). Details of this assay have been published (Alley, M. C. et al., Cancer Research 48:589-601, 1988). Exponentially growing cultures of tumor cells such as the HT-29 colon carcinoma or LX-1 lung tumor were used to make microtiter plate cultures. Cells were seeded at 5000-20,000 cells per well in 96-well plates (in […] of media), and grown overnight at 37° C. Test compounds were added, in 10-fold dilutions varying from 10^-4 M to 10^-10 M. Cells were then incubated for 48 hours. To determine the number of viable cells in each well, the MTT dye was added ([…] of a 3 mg/mL solution of 3-(4,5-dimethylthiazol-2-yl)-2,5-diphenyltetrazolium bromide in saline). This mixture was incubated at 37° C. for 5 hours, and then […] of 25% SDS, pH 2, was added to each well. After an overnight incubation, the absorbance of each well at 550 nm was read using an ELISA reader. The values for the mean ±SD of data from replicated wells were calculated, using the formula % T/C (% viable cells treated/control). The concentration of test compound which gives a T/C of 50% growth inhibition was designated as the IC50.
As usually defined, the IC50 is the point on the concentration scale where inhibition reaches its midpoint. The compound `CC(C)[C@H](NC(=O)[C@H](C(C)C)N(C)C)C(=O)N(C)[C@H](C(=O)N1CCC[C@H]1C(=O)Nc1ccccc1C(=O)NCCCO)C(C)C` [Compound I-86, 2-(Me2 Val-Val-MeVal-Pro-NH)--C6 H4 --CO--NH(--(CH2)3 --OH)] returned an IC50 of 600 nM. Still for that read-out and setting: the value for `CC(C)[C@H](NC(=O)[C@H](C(C)C)N(C)C)C(=O)N(C)[C@H](C(=O)N1CCC[C@H]1C(=O)Nc1ccccc1C(=O)c1ccccc1)C(C)C` [IV-15, 2-(Me2 Val-Val-MeVal-Pro-NH)--C6 H4 --CO--C6 H5] was 70 nM; that for `CC(C)[C@H](NC(=O)[C@H](C(C)C)N(C)C)C(=O)N(C)[C@H](C(=O)N1CCC[C@H]1C(=O)Nc1ccccc1C(=O)NCCC(O)c1ccccc1)C(C)C` (stereo partly drawn) [Compound I-87, 2-(Me2 Val-Val-MeVal-Pro-NH)--C6 H4 C(O)NH((CH2)2 CH(C6 H5)OH)] was 200 nM; that for `CC(C)[C@H](NC(=O)[C@H](C(C)C)N(C)C)C(=O)N(C)[C@H](C(=O)N1CCC[C@H]1C(=O)Nc1cccc(C(=O)NCc2ccccc2)c1)C(C)C` [II-2, 3-(Me2 Val-Val-MeVal-Pro-NH)--C6 H4 --CO--NH CH2 C6 H5] was > 1000 nM. The same measure, in the same setting: then `CON(C)C(=O)c1ccccc1NC(=O)[C@@H]1CCCN1C(=O)[C@H](C(C)C)N(C)C(=O)[C@@H](NC(=O)[C@H](C(C)C)N(C)C)C(C)C` [Compound I-60, (2)-(Me2 Val-Val-MeVal-Pro-NH)-C6 H4 -CON(CH3) (OCH3)], with 400 nM. Same read-out and setting: the value for `CC(C)[C@H](NC(=O)[C@H](C(C)C)N(C)C)C(=O)N(C)[C@H](C(=O)N1CCC[C@H]1C(=O)Nc1ccccc1C(=O)N1CCC(c2ccccc2)O1)C(C)C` (stereo partly drawn) [Compound I-64, 2-(Me2 Val-Val-MeVal-Pro-NH)--C6 H4 --CO--N(--(CH2)2 --CH(C6 H5)O--)] was 250 nM. Consider “2-(Me2 Val-Val-MeVal-Pro-NH)--C6 H4 --CO--CH3 [IV-1]”, for which the IC50 is > 1000 nM. On the same count and under the same terms, then `CC(C)[C@H](NC(=O)[C@H](C(C)C)N(C)C)C(=O)N(C)[C@H](C(=O)N1CCC[C@H]1C(=O)Nc1ccccc1C(=O)Nc1nccs1)C(C)C` [Compound I-5, 2-(Me2 Val-Val-MeVal-Pro-NH)--C6 H4 C(O)NH(thiazol-2-yl)], with 150 nM. For the compound `CNC(=O)c1cc(OC)c(OC)cc1NC(=O)[C@@H]1CCCN1C(=O)[C@H](C(C)C)N(C)C(=O)[C@@H](NC(=O)[C@H](C(C)C)N(C)C)C(C)C` [Compound I-6, 2-(Me2 Val-Val-MeVal-ProNH)-4,5-bis(methoxy)C6 H2 C(O)NHCH3], the midpoint of inhibition, the IC50, lay at 200 nM. Take `CC(C)[C@H](NC(=O)[C@H](C(C)C)N(C)C)C(=O)N(C)[C@H](C(=O)N1CCC[C@H]1C(=O)Nc1ccccc1C(=O)Nc1ccccc1)C(C)C` [Compound I-4, 2-(Me2 Val-Val-MeVal-Pro-NH)--C6 H4 C(O)NHC6 H5]: the IC50 was determined as 400 nM. On the same count and under the same terms, then `CC(C)[C@H](NC(=O)[C@H](C(C)C)N(C)C)C(=O)N(C)[C@H](C(=O)N1CCC[C@H]1C(=O)Nc1ccccc1C(=O)NCc1ccccc1)C(C)C` [Compound I-2, 2-(Me2 Val-Val-MeVal-Pro-NH)--C6 H4 C(O)NHCH2 C6 H5], with > 1000 nM. In turn, `CC(C)NC(=O)c1ccccc1NC(=O)[C@@H]1CCCN1C(=O)[C@H](C(C)C)N(C)C(=O)[C@@H](NC(=O)[C@H](C(C)C)N(C)C)C(C)C` [Compound I-3, 2-(Me2 Val-Val-MeVal-Pro-NH)--C6 H4 C(O)NHCH(CH3)2] yielded an IC50 of 500 nM. On the same count and under the same terms, then `CNC(=O)c1ccccc1NC(=O)[C@@H]1CCCN1C(=O)[C@H](C(C)C)N(C)C(=O)[C@@H](NC(=O)[C@H](C(C)C)N(C)C)C(C)C` [Compound I-1, 2-(Me2 Val-Val-MeVal-Pro-NH)--C6 H4 C(O)NHCH3], with 400 nM. As for `CNC(=O)c1cccc(NC(=O)[C@@H]2CCCN2C(=O)[C@H](C(C)C)N(C)C(=O)[C@@H](NC(=O)[C@H](C(C)C)N(C)C)C(C)C)c1` [II-1, 3-(Me2 Val-Val-MeVal-Pro-NH)--C6 H4 --CO--NHCH3], the IC50 is > 1000 nM.

Tested on in the next series: not given
Assay: not given
To be noted: background statement on Dolastatin 15; cited from earlier work.
Dolastatin 15: the “solubility in aqueous systems” value is “poor solubility in aqueous systems”.

The test system of a further series is National Cancer Institute's P388 lymphocytic leukemia (PS system) cell line.
Assay: not given
To be noted: background statement; cited from earlier work.
As for Dolastatin 15, the “inhibition of cell growth” value is reported as “markedly inhibits the growth”.
